US6121278A, “Di-n-heterocyclic compounds, methods, and compositions for inhibiting parp activity” (Guilford Pharmaceuticals, Inc., priority 1998, dated 2000)
“Also recorded” adds a separate entry of the source.

Experiments:
septic shock mortality = test: Septic shock assay (LPS plus galactosamine); format: in vivo, C57/BL male mice; settings: 60, 20, 6 and 2 mg/kg daily IP for three days; LPS plus galactosamine challenge
Procedure: Groups of 10 C57/BL male mice weighing 18 to 20 g were administered a test compound, 1-carboxynaphthalene-1-carboxamide at the doses of 60, 20, 6 and 2 mg/kg, daily, by intraperitoneal (IP) injection for three consecutive days. Each animal was first challenged with lipopolysaccharide (LPS, from E. coli, LD100 of […] IV) plus galactosamine (20 mg/animal IV). The first dose of test compound in a suitable vehicle was given 30 minutes after challenge, and the second and third doses were given 24 hours later on day 2 and day 3 respectively, with only the surviving animals receiving the second or third dose of the test compound. Mortality was recorded every 12 hours after challenge for the three-day testing period. 1-Carboxy-naphthalene-1-carboxamide provided a protection against mortality from septic shock of about 40%.

[1] = test system: heart ischemia and reperfusion; settings: cited from earlier work
[2] = test system: human fibroblast cells (W138 or BJ); test: Extending proliferative capacity and lifespan of cells; format: cell-based
Procedure: At the time of subdivision, the media is aspirated, and the cells rinsed with phosphate buffer saline (PBS) and then trypsinized. The cells are counted with a Coulter counter and plated at a density of 10^5 cells per cm^2 in 6-well tissue culture plates in DMEM/199 medium supplemented with 10% bovine calf serum and varying amounts (0.10 μM, and 1 mM: from a 100× stock solution in DMEM/M199 medium) of a PARP inhibitor of Formula I as disclosed herein. This process is repeated every 7 days until the cell appear to stop dividing. The untreated (control) cells reach senescence and stop dividing after about 40 days in culture. […] The cells treated with 1 mM 3-AB will still divide after 60 days in culture.

colitis = settings: rat, in vivo; cited from earlier work
[3] = test system: cell viability, glucose metabolism, and DNA synthesis; settings: cited from earlier work
tumor cells = settings: cited from earlier work
PARP = settings: cited from earlier work
focal cerebral ischemia = test: Focal cerebral ischemia (distal MCA cauterization with bilateral temporary CCA occlusion), infarct; format: in vivo, male Long-Evans rats; settings: for cross-sectional infarct area curve (in words): FIG. 1
Procedure: (§1) Focal cerebral ischemia was produced by cauterization of the right distal MCA (middle cerebral artery) with bilateral temporary common carotid artery occlusion in male Long-Evans rats for 90 minutes. All procedures performed on the animals were approved by the University Institutional Animal Care and Use Committee of the University of Pennsylvania. A total of 42 rats (weights: 230-340 g) obtained from Charles River were used in this study. The animals fasted overnight with free access to water prior to the surgical procedure.
(§2) Two hours prior to MCA occlusion, varying amounts (control, n=14; 5 mg/kg, n=7; 10 mg/kg, n=7; 20 mg/kg, n=7; and 40 mg/kg, n=7) of the compound, 3,4-dihydro-5-[4-(1-piperidinyl)-butoxy]-1(2H)-isoquinolinone ("DPQ") were dissolved in dimethyl sulfoxide (DMSO) using a sonicator. A volume of 1.28 ml/kg of the resulting solution was injected intraperitoneally into fourteen rats.
(§3) The rats were then anesthetized with halothane (4% for induction and 0.8%-1.2% for the surgical procedure) in a mixture of 70% nitrous oxide and 30% oxygen. The body temperature was monitored by a rectal probe and maintained at 37.5±0.5° C. with a heating blanket regulated by a homeothermic blanket control unit (Harvard Apparatus Limited, Kent, U.K.). A catheter (PE-50) was placed into the tail artery, and arterial pressure was continuously monitored and recorded on a Grass polygraph recorder (Model 7D, Grass Instruments, Quincy, Mass.). Samples for blood gas analysis (arterial pH, PaO2 and PaCO2) were also taken from the tail artery catheter and measured with a blood gas analyzer (ABL 30, Radiometer, Copenhagen, Denmark). Arterial blood samples were obtained 30 minutes after MCA occlusion.
The head of the animal was positioned in a stereotaxic frame, and a right parietal incision between the right lateral canthus and the external auditory meatus was made. Using a dental drill constantly cooled with saline, a 3 mm burr hole was prepared over the cortex supplied by the right MCA, 4 mm lateral to the sagittal suture and 5 mm caudal to the coronal suture. The dura mater and a thin inner bone layer were kept, care being taken to position the probe over a tissue area devoid of large blood vessels. The flow probe (tip diameter of 1 mm, fiber separation of 0.25 mm) was lowered to the bottom of the cranial burr hole using a micromanipulator. The probe was held stationary by a probe holder secured to the skull with dental cement. The microvascular blood flow in the right parietal cortex was continuously monitored with a laser Doppler flowmeter (FloLab, Moor, Devon, U.K., and Periflux 4001, Perimed, Stockholm, Sweden).
Focal cerebral ischemia was produced by cauterization of the distal portion of the right MCA with bilateral temporary common carotid artery (CCA) occlusion by the procedure of Chen et al., "A Model of Focal Ischemic Stroke in the Rat: Reproducible Extensive Cortical Infarction", Stroke 17:738-43 (1986) and/or Liu et al., "Polyethylene Glycol-conjugated Superoxide Dismutase and Catalase Reduce Ischemic Brain Injury", Am. J. Physiol. 256:H589-93 (1989), both of which are hereby incorporated by reference.
Specifically, bilateral CCA's were isolated, and loops made from polyethylene (PE-10) catheter were carefully passed around the CCA's for later remote occlusion. […]

[4] = Arterial blood gases, pH and MABP in focal cerebral ischemia rats; format: in vivo, male Long-Evans rats; settings: for MABP Ischemia: during occlusion; for MABP Steady State: just prior to occlusion
Procedure: as §1, §2, §3
A "steady state" MABP was taken following completion of the surgical reparation, just prior to occlusion; an "ischemia" MABP was taken as the average MABP during occlusion.

[5] = target: T1, purified recombinant human PARP (Homo sapiens, UniProt P09874); test: PARP enzyme assay, [3H]NAD incorporation; format: biochemical; settings: 25° C., 15 minutes; PARP inhibition; read-out: Approximate IC50's
T1 construct: purchased Trevigen (Gaithersburg, Md.)
Procedure: The reaction was initiated by incubating the mixture at 25° C. After 15 minutes' incubation, the reaction was terminated by adding 500 microliters of ice cold 20% (w/v) trichloroacetic acid. The precipitate formed was transferred onto a glass fiber filter (Packard Unifilter-GF/B) and washed three times with ethanol. After the filter was dried, the radioactivity was determined by scintillation counting.

[6] = dose of acetanilid given to a person; cited from earlier work
endotoxic shock = settings: in vivo; cited from earlier work

T1 sequence (P09874 whole entry): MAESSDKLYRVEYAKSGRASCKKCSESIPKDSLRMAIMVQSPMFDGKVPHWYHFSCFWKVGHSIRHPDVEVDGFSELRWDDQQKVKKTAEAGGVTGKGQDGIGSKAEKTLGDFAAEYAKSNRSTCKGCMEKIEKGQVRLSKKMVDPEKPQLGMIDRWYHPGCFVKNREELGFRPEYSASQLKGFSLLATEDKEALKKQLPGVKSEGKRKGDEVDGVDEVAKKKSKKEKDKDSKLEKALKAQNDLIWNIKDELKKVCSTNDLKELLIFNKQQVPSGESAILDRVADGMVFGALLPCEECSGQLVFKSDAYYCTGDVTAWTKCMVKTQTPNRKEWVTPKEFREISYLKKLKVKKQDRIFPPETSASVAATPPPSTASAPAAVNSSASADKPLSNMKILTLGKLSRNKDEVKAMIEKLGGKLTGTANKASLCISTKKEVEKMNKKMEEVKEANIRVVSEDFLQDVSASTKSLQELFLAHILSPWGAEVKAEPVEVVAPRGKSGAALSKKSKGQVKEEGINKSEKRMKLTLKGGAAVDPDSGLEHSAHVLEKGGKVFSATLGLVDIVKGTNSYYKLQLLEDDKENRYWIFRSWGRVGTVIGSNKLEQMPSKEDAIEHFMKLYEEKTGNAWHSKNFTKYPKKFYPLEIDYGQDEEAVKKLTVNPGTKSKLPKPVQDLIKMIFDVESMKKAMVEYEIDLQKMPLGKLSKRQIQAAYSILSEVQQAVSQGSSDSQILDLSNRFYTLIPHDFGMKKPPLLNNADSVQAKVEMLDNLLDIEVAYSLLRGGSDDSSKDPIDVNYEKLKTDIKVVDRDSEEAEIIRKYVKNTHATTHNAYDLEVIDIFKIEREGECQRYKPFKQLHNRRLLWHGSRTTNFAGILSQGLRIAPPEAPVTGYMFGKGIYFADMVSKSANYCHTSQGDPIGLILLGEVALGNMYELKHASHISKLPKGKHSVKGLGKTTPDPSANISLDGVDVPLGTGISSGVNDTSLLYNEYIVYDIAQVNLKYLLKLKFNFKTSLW

Molecule: 1-carboxynaphthalene-1-carboxamide
- protection against mortality from septic shock (septic shock mortality): about 40%

Molecule: Oc1cccc2c(O)nccc12 [1,5-dihydroxyisoquinoline]
- reduction in infarct size ([1]; 1 mg/kg single injection): 38-48%

Molecule: NC(=O)c1cccc(N)c1 [3-aminobenzamide]
- effect on lifespan of cells (in words) ([2]; 10 μM): little or no effect
- effect on lifespan of cells (in words) ([2]; 100 μM): appears lengthen the lifespan of the cells
- effect on lifespan and proliferative capacity of cells (in words) ([2]; 1 mM): dramatically increases the lifespan and proliferative capacity of the cells
- time in culture after which cells still divide ([2]; 1 mM, untreated cells stop after about 40 days): > 60 days
- reduction in infarct size in the heart ([1]; 10 mg/kg single injection, one minute before occlusion or reperfusion): 32-42%
- colitis outcome (in words) (colitis): reduced the inflammatory response and restored the morphology and the energetic status of the distal colon
- effect on cell viability, glucose metabolism, and DNA synthesis (in words) [3]: shown to affect cell viability, glucose metabolism, and DNA synthesis

Molecule: O=c1[nH]c2ccccc2c2ccccc12 [6(5H)-Phenanthridinone]
- proliferation of tumor cells (in words) (tumor cells): reduced proliferation of tumor cells
- synergy with an alkylating drug (in words) (tumor cells; co-treatment with an alkylating drug): a marked synergistic effect when tumor cells are co-treated with an alkylating drug
- PARP activity (in words) (PARP): inhibition of PARP activity

Molecule: O=C1NCCc2c(OCCCCN3CCCCC3)cccc21 [DPQ, 3,4-dihydro-5-[4-(1-piperidinyl)-butoxy]-1(2H)-isoquinolinone]
- cross-sectional infarct area curve (in words) (focal cerebral ischemia; 5 mg/kg i.p.): fell approximately halfway between the control and the 10 mg/kg curves
- cross-sectional infarct area curve (in words) (focal cerebral ischemia; 20 mg/kg i.p.): fell approximately halfway between the control and the 10 mg/kg curves
- infarct volume versus control (in words) (focal cerebral ischemia; 40 mg/kg i.p.): no significant difference between the control and the 40 mg/kg-treated group; also recorded: less neuroprotective
- cross-sectional infarct area curve (in words) (focal cerebral ischemia; 40 mg/kg i.p.): close to the control
- reduction in infarct volume overall (in words) (focal cerebral ischemia; overall, in vivo administration): substantial reduction in infarct volume
- PaCO2 ([4]; 5 mg/kg-treated group (n = 7)): 38.0 ± 2.8 mm Hg
- PaO2 ([4]; 5 mg/kg-treated group (n = 7)): 126 ± 20 mm Hg
- arterial pH ([4]; 5 mg/kg-treated group (n = 7)): 7.36 ± 0.02
- MABP Ischemia ([4]; 5 mg/kg-treated group (n = 7), ** p < 0.01 vs steady state): 91 mm Hg
- MABP Steady State ([4]; 5 mg/kg-treated group (n = 7)): 78 ± 5 mm Hg
- PaCO2 ([4]; 10 mg/kg-treated group (n = 7)): 39.3 ± 5.2 mm Hg
- PaO2 ([4]; 10 mg/kg-treated group (n = 7)): 125 ± 16 mm Hg
- arterial pH ([4]; 10 mg/kg-treated group (n = 7)): 7.34 ± 0.03
- MABP Ischemia ([4]; 10 mg/kg-treated group (n = 7), * p < 0.05 vs steady state): 90 mm Hg
- MABP Steady State ([4]; 10 mg/kg-treated group (n = 7)): 80 ± 9 mm Hg
- PaCO2 ([4]; 20 mg/kg-treated group (n = 7)): 41.3 ± 2.8 mm Hg
- PaO2 ([4]; 20 mg/kg-treated group (n = 7)): 122 ± 14 mm Hg
- arterial pH ([4]; 20 mg/kg-treated group (n = 7)): 7.35 ± 0.23
- MABP Ischemia ([4]; 20 mg/kg-treated group (n = 7), ** p < 0.01 vs steady state): 91 mm Hg
- MABP Steady State ([4]; 20 mg/kg-treated group (n = 7)): 79 ± 10 mm Hg
- PaCO2 ([4]; 40 mg/kg-treated group (n = 7)): 39.5 ± 4.7 mm Hg
- PaO2 ([4]; 40 mg/kg-treated group (n = 7)): 137 ± 17 mm Hg
- arterial pH ([4]; 40 mg/kg-treated group (n = 7)): 7.33 ± 0.24
- MABP Ischemia ([4]; 40 mg/kg-treated group (n = 7), * p < 0.05 vs steady state): 88 mm Hg
- MABP Steady State ([4]; 40 mg/kg-treated group (n = 7)): 78 ± 4 mm Hg

Molecule: Nc1ccc2c(c1)oc(=O)c1ccccc12 [PARP Inhibitor (line 8)]
- IC50 [5]: ~4 µM

Molecule: CC(=O)Nc1ccc(O)cc1 [acetaminophen, p-hydroxyacetanilid]
- plasma component / peak (in words) [6]: In the second hour, as the acetanilid level falls, the metabolite acetaminophen concentration reaches a peak

Molecule: CC(=O)Nc1ccccc1 [acetanilid, acetanilide]
- plasma component / peak (in words) [6]: During the first hour, acetanilid is the principal plasma component

Molecule: NC(=O)c1ccccc1 [benzamide]
- effect on cell viability, glucose metabolism, and DNA synthesis (in words) [3]: shown to affect cell viability, glucose metabolism, and DNA synthesis

Molecule: NC(=O)c1cccnc1 [nicotinamide]
- vascular failure in endotoxic shock (in words) (endotoxic shock): protects against delayed, NO-mediated vascular failure in endotoxic shock
